# Results from patent US10681909B2, “Herbicidal triazoles” (FMC Corporation, priority 2014, dated 2020).
# What was measured:
# deadnettle = experiment: Test D preemergence; format: in vivo, Lamium amplexicaule; conditions: scale 0 to 100
# From the text: (§1) Seeds of plant species selected from bluegrass (annual bluegrass, Poa annua), blackgrass (Alopecurus myosuroides), canarygrass (Phalaris minor), chickweed (common chickweed, Stellaria media), galium (catchweed bedstraw, Galium aparine), bromegrass, down (downy bromegrass, Bromus tectorum), Russian thistle (Salsola kali), field poppy (Papaver rhoeas), field violet (Viola arvensis), foxtail, green (green foxtail, Setaria viridis), deadnettle (henbit deadnettle, Lamium amplexicaule), ryegrass, Ital. (Italian ryegrass, Lolium multiflorum), kochia (Kochia scoparia), lambsquarters (Chenopodium album), oilseed rape (Brassica napus), pigweed (Amaranthus retroflexus), chamomile (scentless chamomile, Matricaria inodora), speedwell (bird's-eye speedwell, Veronica persica), barley, spring (spring barley, Hordeum vulgare), wheat, spring (spring wheat, Triticum aestivum), buckwheat, wild (wild buckwheat, Polygonum convolvulus), wild mustard (Sinapis arvensis), oat, wild (wild oat, Avena fatua), radish, wild (wild radish, Raphanus raphanistrum), […]), barley, winter (winter barley, Hordeum vulgare), and wheat, winter (winter wheat, Triticum aestivum) were planted into a silt loam soil and treated preemergence with test chemicals formulated in a non-phytotoxic solvent mixture which included a surfactant. At the same time, these species were planted in pots containing Sunshine Redi-Earth® planting medium comprising spaghnum peat moss, vermiculite, starter nutrients and dolomitic limestone and treated with postemergence applications of the test chemicals formulated in the same manner. Plants ranged in height from 2 to 18 cm (1- to 4-leaf stage). Treated plants and controls were maintained in a controlled growth environment for 14 to 21 d after which time all species were compared to controls and visually evaluated. […] A dash (-) response means no test result.
# pigweed = experiment: Test D preemergence; format: in vivo, Amaranthus retroflexus; conditions: scale 0 to 100
# From the text: as §1
# crabgrass, large = experiment: Test C preemergence; format: in vivo, Digitaria sanguinalis; conditions: for Plant response rating (scale of 0 to 100 where 0 is no effect and 100 is complete control): Crabgrass, Large, preemergence; for Crabgrass, Large plant response rating (0 to 100): Preemergence, visual rating after 13 to 15 d
# Outline: (§2)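 Surfactant-containing, non-phytotoxic solvent formulations of each compound were applied either preemergence to seeds in a loam soil–sand blend or postemergence to plants 2 to 18 cm tall (1- to 4-leaf stage). Postemergence plants were grown in peat moss–vermiculite medium.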
# wild mustard = experiment: Test D preemergence; format: in vivo, Sinapis arvensis; conditions: scale 0 to 100
# From the text: as §1
# ryegrass, Italian = experiment: Test C preemergence; format: in vivo, Lolium multiflorum; conditions: for Ryegrass, Italian plant response rating (0 to 100): Preemergence, visual rating after 13 to 15 d; for Plant response rating (scale of 0 to 100 where 0 is no effect and 100 is complete control): Ryegrass, Italian, preemergence
# Outline: as §2
# speedwell = experiment: Test D postemergence; format: in vivo, Veronica persica; conditions: scale 0 to 100
# From the text: as §1
# lambsquarters = experiment: Test C preemergence; format: in vivo, Chenopodium album; conditions: for Plant response rating (scale of 0 to 100 where 0 is no effect and 100 is complete control): Lambsquarters, preemergence; for Lambsquarters plant response rating (0 to 100): Preemergence, visual rating after 13 to 15 d
# Outline: as §2
# corn = experiment: Test A preemergence; format: in vivo, Zea mays; conditions: Zea mays, pre-emergence, 240 h, 0 to 100 scale (0 no effect, 100 complete control); for Corn plant response rating (crop injury, 0 = no effect, 100 = complete kill) at 125 g/ha: 125 g ai/ha; for Corn plant response rating (crop injury, 0 = no effect, 100 = complete kill) at 500 g/ha: 500 g ai/ha, approx. 10 d
# Outline: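 Plant seeds in loam soil blended with sand, then apply test chemical preemergence as a directed soil spray; in parallel, spray potted seedlings (one- to two-leaf, 2 to 10 cm) postemergence. Both treatments use a non-phytotoxic solvent mixture with surfactant.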
# buckwheat, wild = experiment: Test D preemergence; format: in vivo, Polygonum convolvulus; conditions: scale 0 to 100
# From the text: as §1
# wheat, winter = experiment: Test D postemergence; format: in vivo, Triticum aestivum; conditions: scale 0 to 100
# From the text: as §1
# wheat, spring = experiment: Test D postemergence; format: in vivo, Triticum aestivum; conditions: scale 0 to 100
# From the text: as §1
# foxtail, giant = experiment: Test C preemergence; format: in vivo, Setaria faberii; conditions: for Plant response rating (scale of 0 to 100 where 0 is no effect and 100 is complete control): Foxtail, Giant, preemergence; for Foxtail, Giant plant response rating (0 to 100): Preemergence, visual rating after 13 to 15 d
# Outline: as §2
# kochia = experiment: Test D postemergence; format: in vivo, Kochia scoparia; conditions: scale 0 to 100
# From the text: as §1
smiles,measurement,setting,value
"CCc1nc(-c2ccc(C(F)(F)F)cc2)nn1Cc1ccnc(C(F)(F)F)c1 [Compound 1, 4-[[5-ethyl-3-[4-(trifluoromethyl)phenyl]-1H-1,2,4-triazol-1-yl]methyl]-2-(trifluoromethyl)pyridine]",Plant response rating: Deadnettle,deadnettle; 31 g ai/ha,100
same,Plant response rating: Deadnettle,deadnettle; 62 g ai/ha,100
same,Plant response rating: Deadnettle,deadnettle; 125 g ai/ha,100
same,Plant response rating: Deadnettle,deadnettle; 250 g ai/ha,100
same,Plant response rating: Pigweed,pigweed; 62 g ai/ha,100
same,Plant response rating: Pigweed,pigweed; 125 g ai/ha,100
same,Plant response rating: Pigweed,pigweed; 250 g ai/ha,100
same,Plant response rating (scale of 0 to 100 where 0 is no effect and 100 is complete control),"crabgrass, large; 125 g ai/ha",100
same,Plant response rating (scale of 0 to 100 where 0 is no effect and 100 is complete control),"crabgrass, large; 250 g ai/ha",100
same,"Crabgrass, Large plant response rating (0 to 100)","crabgrass, large; 31 g ai/ha",98
same,"Crabgrass, Large plant response rating (0 to 100)","crabgrass, large; 62 g ai/ha",100
same,"Plant response rating: Mustard, Wild",wild mustard; 62 g ai/ha,100
same,"Plant response rating: Mustard, Wild",wild mustard; 125 g ai/ha,100
same,"Plant response rating: Mustard, Wild",wild mustard; 250 g ai/ha,100
same,"Ryegrass, Italian plant response rating (0 to 100)","ryegrass, Italian; 31 g ai/ha",5
same,"Ryegrass, Italian plant response rating (0 to 100)","ryegrass, Italian; 62 g ai/ha",10
same,Plant response rating (scale of 0 to 100 where 0 is no effect and 100 is complete control),"ryegrass, Italian; 125 g ai/ha",90
same,Plant response rating: Speedwell,speedwell; 31 g ai/ha,100
same,Plant response rating: Speedwell,speedwell; 62 g ai/ha,100
same,Plant response rating: Speedwell,speedwell; 125 g ai/ha,100
same,Plant response rating: Speedwell,speedwell; 250 g ai/ha,100
same,Plant response rating (scale of 0 to 100 where 0 is no effect and 100 is complete control),lambsquarters; 125 g ai/ha,98
same,Plant response rating (scale of 0 to 100 where 0 is no effect and 100 is complete control),lambsquarters; 250 g ai/ha,98
same,Lambsquarters plant response rating (0 to 100),lambsquarters; 31 g ai/ha,90
same,Lambsquarters plant response rating (0 to 100),lambsquarters; 62 g ai/ha,98
same,"Corn plant response rating (crop injury, 0 = no effect, 100 = complete kill) at 125 g/ha",corn,10%
same,"Corn plant response rating (crop injury, 0 = no effect, 100 = complete kill) at 500 g/ha",corn,20%
same,"Plant response rating: Buckwheat, Wild","buckwheat, wild; 31 g ai/ha",60
same,"Plant response rating: Buckwheat, Wild","buckwheat, wild; 62 g ai/ha",70
same,"Plant response rating: Buckwheat, Wild","buckwheat, wild; 125 g ai/ha",65
same,"Plant response rating: Buckwheat, Wild","buckwheat, wild; 250 g ai/ha",100
same,"Plant response rating: Wheat, Winter","wheat, winter; 31 g ai/ha",15
same,"Plant response rating: Wheat, Winter","wheat, winter; 62 g ai/ha",15
same,"Plant response rating: Wheat, Winter","wheat, winter; 125 g ai/ha",25
same,"Plant response rating: Wheat, Winter","wheat, winter; 250 g ai/ha",35
same,"Plant response rating: Wheat, Spring","wheat, spring; 31 g ai/ha",20
same,"Plant response rating: Wheat, Spring","wheat, spring; 62 g ai/ha",25
same,"Plant response rating: Wheat, Spring","wheat, spring; 125 g ai/ha",35
same,"Plant response rating: Wheat, Spring","wheat, spring; 250 g ai/ha",45
same,Plant response rating (scale of 0 to 100 where 0 is no effect and 100 is complete control),"foxtail, giant; 125 g ai/ha",100
same,Plant response rating (scale of 0 to 100 where 0 is no effect and 100 is complete control),"foxtail, giant; 250 g ai/ha",100
same,"Foxtail, Giant plant response rating (0 to 100)","foxtail, giant; 31 g ai/ha",98
same,"Foxtail, Giant plant response rating (0 to 100)","foxtail, giant; 62 g ai/ha",98
same,Plant response rating: Kochia,kochia; 31 g ai/ha,65
same,Plant response rating: Kochia,kochia; 62 g ai/ha,75
same,Plant response rating: Kochia,kochia; 125 g ai/ha,80
same,Plant response rating: Kochia,kochia; 250 g ai/ha,80
"CCOc1nc(-c2ccc(F)cc2)nn1Cc1ccnc(C(F)(F)F)c1 [Compound 8, 4-[[5-ethoxy-3-(4-fluorophenyl)-1H-1,2,4-triazol-1-yl]methyl]-2-(trifluoromethyl)pyridine]",Plant response rating: Deadnettle,deadnettle; 31 g ai/ha,100
same,Plant response rating: Deadnettle,deadnettle; 62 g ai/ha,100
same,Plant response rating: Deadnettle,deadnettle; 125 g ai/ha,100
same,Plant response rating: Deadnettle,deadnettle; 250 g ai/ha,100
same,Plant response rating: Pigweed,pigweed; 62 g ai/ha,100
same,Plant response rating: Pigweed,pigweed; 125 g ai/ha,100
same,Plant response rating: Pigweed,pigweed; 250 g ai/ha,100
same,Plant response rating (scale of 0 to 100 where 0 is no effect and 100 is complete control),"crabgrass, large; 125 g ai/ha",100
same,Plant response rating (scale of 0 to 100 where 0 is no effect and 100 is complete control),"crabgrass, large; 250 g ai/ha",100
same,"Crabgrass, Large plant response rating (0 to 100)","crabgrass, large; 31 g ai/ha",100
same,"Crabgrass, Large plant response rating (0 to 100)","crabgrass, large; 62 g ai/ha",100
same,"Plant response rating: Mustard, Wild",wild mustard; 62 g ai/ha,100
same,"Plant response rating: Mustard, Wild",wild mustard; 125 g ai/ha,100
same,"Plant response rating: Mustard, Wild",wild mustard; 250 g ai/ha,100
same,"Ryegrass, Italian plant response rating (0 to 100)","ryegrass, Italian; 31 g ai/ha",50
same,"Ryegrass, Italian plant response rating (0 to 100)","ryegrass, Italian; 62 g ai/ha",80
same,Plant response rating (scale of 0 to 100 where 0 is no effect and 100 is complete control),"ryegrass, Italian; 125 g ai/ha",90
same,Plant response rating (scale of 0 to 100 where 0 is no effect and 100 is complete control),"ryegrass, Italian; 250 g ai/ha",90
same,Plant response rating: Speedwell,speedwell; 31 g ai/ha,100
same,Plant response rating: Speedwell,speedwell; 62 g ai/ha,100
same,Plant response rating: Speedwell,speedwell; 125 g ai/ha,100
same,Plant response rating: Speedwell,speedwell; 250 g ai/ha,100
same,Plant response rating (scale of 0 to 100 where 0 is no effect and 100 is complete control),lambsquarters; 125 g ai/ha,100
same,Plant response rating (scale of 0 to 100 where 0 is no effect and 100 is complete control),lambsquarters; 250 g ai/ha,100
same,Lambsquarters plant response rating (0 to 100),lambsquarters; 31 g ai/ha,95
same,Lambsquarters plant response rating (0 to 100),lambsquarters; 62 g ai/ha,98
same,"Corn plant response rating (crop injury, 0 = no effect, 100 = complete kill) at 125 g/ha",corn,90%
same,"Corn plant response rating (crop injury, 0 = no effect, 100 = complete kill) at 500 g/ha",corn,100%
same,"Plant response rating: Buckwheat, Wild","buckwheat, wild; 31 g ai/ha",35
same,"Plant response rating: Buckwheat, Wild","buckwheat, wild; 62 g ai/ha",100
same,"Plant response rating: Buckwheat, Wild","buckwheat, wild; 125 g ai/ha",100
same,"Plant response rating: Buckwheat, Wild","buckwheat, wild; 250 g ai/ha",100
same,"Plant response rating: Wheat, Winter","wheat, winter; 31 g ai/ha",25
same,"Plant response rating: Wheat, Winter","wheat, winter; 62 g ai/ha",35
same,"Plant response rating: Wheat, Winter","wheat, winter; 125 g ai/ha",35
same,"Plant response rating: Wheat, Winter","wheat, winter; 250 g ai/ha",35
same,"Plant response rating: Wheat, Spring","wheat, spring; 31 g ai/ha",25
same,"Plant response rating: Wheat, Spring","wheat, spring; 62 g ai/ha",25
same,"Plant response rating: Wheat, Spring","wheat, spring; 125 g ai/ha",35
same,"Plant response rating: Wheat, Spring","wheat, spring; 250 g ai/ha",35
same,Plant response rating (scale of 0 to 100 where 0 is no effect and 100 is complete control),"foxtail, giant; 125 g ai/ha",100
same,Plant response rating (scale of 0 to 100 where 0 is no effect and 100 is complete control),"foxtail, giant; 250 g ai/ha",100
same,"Foxtail, Giant plant response rating (0 to 100)","foxtail, giant; 31 g ai/ha",100
same,"Foxtail, Giant plant response rating (0 to 100)","foxtail, giant; 62 g ai/ha",100
same,Plant response rating: Kochia,kochia; 31 g ai/ha,75
same,Plant response rating: Kochia,kochia; 62 g ai/ha,80
same,Plant response rating: Kochia,kochia; 125 g ai/ha,85
same,Plant response rating: Kochia,kochia; 250 g ai/ha,80
